The values that follow come from article PMC8876244, “Effective Synthesis and Antifouling Activity of Dolastatin 16 Derivatives” (Marine Drugs, 2022).

Converted amounts (≈) assume the structure as drawn. Where two headings read alike, the source gives them in different places. Starred links: 1 amine or outer side, 2 acyl side, 3 side chain; linkers in the order of their positions; H or OH if unused. Non-standard residues stand in square brackets, D forms with d. Residues, ends and D or L forms follow the SMILES beside them. *: point of attachment. X3 = CC(=O)Oc1ccc(C[C@@H](C)[C@H](N[*:1])C(=O)[*:2])cc1; X4 = CC(C)[C@@H](N[*:1])[C@@H](C)C(=O)[*:2]; X1 = CC(Cc1ccccc1)C(N[*:1])C(=O)[*:2]; X2 = CC(C)C(N[*:1])C(C)C(=O)[*:2]; X5 = C[C@H](OCc1ccccc1)C(=O)*; dNMeV = CN[C@@H](C(=O)O)C(C)C; dHiv = CC(C)[C@@H](O)C(=O)O; Hiv = CC(C)[C@H](O)C(=O)O; Lac = C[C@H](O)C(=O)O; OBn = c1ccc(CO*)cc1

Series [1] concerns cypris larvae of the barnacle Amphibalanus amphitrite. The series is described as follows: Antifouling assay: inhibition of settlement of cypris larvae, 48 h exposure. It counts as in vivo. The settings on record: for EC50: Amphibalanus amphitrite, 48 h. Here is the method: The antifouling activities of synthetic samples were evaluated as EC50 values against the cypris larvae of A. amphitrite by exposure of each compound for 48 h (Table 1, Figure 2). […] We next investigated the biological activity of the fragments.
(§1) Antifouling assay against larvae of the barnacle Amphibalanus amphitrite was conducted according to the previous literature. The adult barnacles, A. amphitrite, obtained from oyster farms in Lake Hamana and a pier of Shimizu bay, Shizuoka, were kept in an aquarium at 20 °C and were fed on Artemia salina nauplii. Broods were released as I–II stage nauplii upon immersion in seawater after drying overnight. The nauplii (1.0~3.0 indiv./mL) thus obtained were cultured in 2.0 L filtered (0.2 μm) natural seawater (diluted by DW: salinity 28) containing penicillin G (20 μg/mL) and streptomycin sulfate (30 μg/mL) at 25 °C and were fed on the diatom Chaetoceros gracillis at concentrations of 40 × 10^4 cells/mL. Larvae reached the cyprid stage in 5 days. The cyprids were collected, then stored at 4 °C until use (0-day-old).
(§2) The test compounds were dissolved in ethanol and aliquots of the solution (20 μL) were transferred to wells of a 24-well polystyrene culture plates and then air-dried for 3 h at room temperature and CuSO4 was used as positive compound. Four wells were used for each concentration (0.03, 0.1, 0.3, 1.0, 3.0, 10.0 μg/mL). To each well were added filtered ([…]) natural seawater (2.0 mL, salinity 28) and six 2-day-old cyprids. The plates were kept in the dark at 25 °C for 48 h. […] Three or four trials were carried out for each concentration. Antifouling activity (EC50) indicates the concentration reducing the larval settlement to 50% of the control (non-treatment) by Probit analysis. Toxicity of compounds were expressed as LC50 value, which indicates the concentration showing 50% mortality estimated by Probit analysis.

Series [2] in a line: Antifouling assay: toxicity (mortality) to cypris larvae, 48 h exposure. The settings on record: Amphibalanus amphitrite (barnacle, cypris larvae), in vivo, 50% mortality of cyprids, highest concentration 10.0 μg/mL, read-out: LC50 (50% lethal concentration). Here is the method: as §1, §2
The subject of series [3] is cypris larvae of the barnacle Amphibalanus amphitrite. The settings on record: previous compounds and positive control, cited from earlier work; for EC50: read-out: EC50 (μM), antifouling activity.
For series [4], the system named is larval settlement and metamorphosis of the barnacle Amphibalanus amphitrite. Also on record: method as in PMID 20658384. The settings on record: cited from earlier work.
In series [5] the test system is barnacle Amphibalanus amphitrite. More on the design: method as in PMID 20658384. The settings on record: cited from earlier work.
For series [6], the system named is human cancer cell lines such as NCI-H460, KM20L2 and SF-295. The settings on record: cited from earlier work.
Series [7] concerns cypris larvae of the barnacle Amphibalanus amphitrite. The settings on record: previous compounds and positive control; cited from earlier work.
Setting [8] is: larval settlement reduced to 50% of control, Probit analysis, read-out: EC50 (50% effective concentration), antifouling activity.
Where [9] appears, read: larval settlement, read-out: EC50 (μM), antifouling activity.

Regarding `CC(C)[C@@H](NC(=O)[C@@H]1CCCN1C(=O)[C@@H](NC(=O)OC(C)(C)C)[C@H](C)Cc1ccccc1)[C@@H](C)C(=O)OCc1ccccc1` [Boc-3], the EC50 is under 1 µg/mL in series [1] (setting [8]) and 1.3 µM in series [1] (setting [9]). In addition, in series [2], the LC50 was over 10 µg/mL.
For the molecule `CC(C)C1NC(=O)[C@@H]2CCCN2C(=O)C(C(C)Cc2ccccc2)NC(=O)[C@@H]2CCCN2C(=O)[C@@H](C(C)C)N(C)C(=O)[C@@H](C(C)C)OC(=O)[C@@H]2CCCN2C(=O)[C@H](C)OC(=O)C1C` (some centres unmarked) [Compound 1, Dolastatin 16] (cyclo([Lac]P[dHiv][dNMeV]P[X1]P[X2])), in series [3], the “EC50 (50% effective concentration), antifouling activity” value is under 0.03 µg/mL and the EC50 was under 0.03 µM. For the same molecule, in series [4], the “EC50 (50% effective concentration)” value is 0.003 µg/mL (≈ 0.00341 µM). In series [5], the “LC50 (50% lethal concentration)” value was 20 µg/mL (≈ 22.8 µM). For the same molecule, the “Growth inhibition of human cancer cell lines” value in series [6] (1 isolated from the natural sample) was “strong growth inhibitions”. Also, in series [6] (synthetic 1), the “Anticancer activity of synthetic sample versus isolated compound” value was “much less potent than the isolated compound”. The “LC50 (50% lethal concentration)” value in series [7] is over 10 µg/mL.
Take `CC(C)[C@H](OC(=O)[C@@H]1CCCN1C(=O)[C@H](C)OCc1ccccc1)C(=O)N(C)[C@@H](C(=O)N1CCC[C@H]1C(=O)O)C(C)C` [Compound 2] (X5-P[Hiv][dNMeV]P-OH): in series [3], the “EC50 (50% effective concentration), antifouling activity” value is over 10 µg/mL and the EC50 was over 17 µM. In series [7], the “LC50 (50% lethal concentration)” value was over 10 µg/mL.
As for `CC(C)[C@@H](NC(=O)[C@@H]1CCCN1C(=O)[C@@H](N)[C@H](C)Cc1ccccc1)[C@@H](C)C(=O)OCc1ccccc1` [Compound 3], in series [3], the “EC50 (50% effective concentration), antifouling activity” value is 1.17 µg/mL (≈ 2.3 µM) and the EC50 is 1.92 µM. For the same molecule, the “LC50 (50% lethal concentration)” value in series [7] was over 10 µg/mL.
As for `CC(C)[C@@H](NC(=O)[C@@H]1CCCN1C(=O)[C@@H](NC(=O)OC(C)(C)C)[C@H](C)Cc1ccc(O)cc1)[C@@H](C)C(=O)OCc1ccccc1` [Compound 21, Boc-Dpv(OH)-Pro-Dml-OBn], the EC50 in series [1] (setting [8]) is under 1 µg/mL; in series [1] (setting [9]) it was 0.96 µM. The LC50 in series [2] is over 10 µg/mL.
Taken in the same sequence, the figures for `CC(C)[C@@H](NC(=O)[C@@H]1CCCN1C(=O)[C@@H](NC(=O)OC(C)(C)C)[C@H](C)Cc1ccc(OCc2ccccc2)cc1)[C@@H](C)C(=O)OCc1ccccc1` [Compound 22, Boc-Dpv(OBn)-Pro-Dml-OBn] were 4.62 µg/mL, 6.47 µM and over 10 µg/mL.
With `CC(=O)Oc1ccc(C[C@@H](C)[C@@H]2NC(=O)[C@@H]3CCCN3C(=O)[C@@H](C(C)C)N(C)C(=O)[C@H](C(C)C)OC(=O)[C@@H]3CCCN3C(=O)[C@H](C)OC(=O)[C@H](C)[C@@H](C(C)C)NC(=O)[C@@H]3CCCN3C2=O)cc1` [Compound 24, Dolastatin 16 Acetate] (cyclo([Hiv][dNMeV]P[X3]P[X4][Lac]P)), the EC50 was 1.74 µg/mL in series [1] (read-out: EC50 (50% effective concentration), antifouling activity) and 1.86 µM in series [1] (read-out: EC50 (μM), antifouling activity). Further, the “Antifouling activity (in words)” value in series [1] (settlement of cypris larvae) was “much less potent than dolastatin 16”. Further, in series [2], the LC50 at 48 h was over 10 µg/mL.
Take `CC(C)[C@H](OC(=O)[C@@H]1CCCN1C(=O)[C@H](C)OCc1ccccc1)C(=O)N(C)[C@@H](C(=O)N1CCC[C@H]1C(=O)OCc1ccccc1)C(C)C` [Compound 25, BnO-Lac-Pro-O-Hiv-D-MeVal-Pro-OBn] (X5-P[Hiv][dNMeV]P-OBn): the EC50 in series [1] (setting [8]) was under 1 µg/mL; in series [1] (setting [9]), 1.32 µM. The LC50 in series [2] is over 10 µg/mL.
In the case of `CC(C)[C@H](OC(=O)[C@@H]1CCCN1C(=O)OC(C)(C)C)C(=O)N(C)[C@@H](C(=O)N1CCC[C@H]1COCc1ccccc1)C(C)C` [Compound 29, Boc-Pro-O-Hiv-D-MeVal-Pro-CH2OBn], the EC50 in series [1] (setting [8]) is 3.27 µg/mL; in series [1] (setting [9]), 6.52 µM. For the same molecule, in series [2], the LC50 was over 10 µg/mL.
As for `O=S(=O)([O-])[O-].[Cu+2]` [CuSO4, reference compound], in series [3], the “EC50 (50% effective concentration), antifouling activity” value was 0.10 µg/mL and the EC50 was 0.63 µM. Moreover, the “LC50 (50% lethal concentration)” value in series [7] is over 10 µg/mL.
